Here are results for three molecules from ChEMBL document CHEMBL1201862, “PubChem BioAssay data set” (2004).

Activity calls are given as the source filed them.

For orientation: EC50 means the concentration at which the effect is half-maximal. One may read the IC50 as the concentration needed to halve the response being measured. A word on the Ki: it is a dissociation constant, usually derived from enzyme kinetics or from competition with a known ligand.

In test [1] the test system is Streptococcus sp. 'group A'. Put plainly: Streptococcus pyogenes SK(-)GAS viability under kanamycin – luminescence, BacTiterGlo, confirmation, counter-screen for streptokinase expression inhibitor project, dose response (AID 1900). The format is functional, organism-based.
In test [2] the target is Multidrug resistance protein CDR2 (Candida albicans (strain SC5314 / ATCC MYA-2876) (Yeast), UniProt P78595). Put plainly: inhibition of Nile Red efflux via Candida CDR2 – S. cerevisiae AD1-8u, singleplex, Cherry Pick1 hits, dose response (AID 588604). The format is functional.
Test [3] in a line: Luminescence Cell-Based Dose Confirmation HTS to Identify Inhibitors of Polyadenylation. The format is functional.
For test [4], the target named is Multidrug resistance protein CDR1 (Candida albicans, UniProt P43071). The test is described as follows: inhibition of Nile Red efflux via Candida CDR1 – S. cerevisiae AD1-8u, singleplex, Cherry Pick1 hits, dose response (AID 588606). The format is functional.
Sequence of Multidrug resistance protein CDR1 (P43071 whole entry, looked up): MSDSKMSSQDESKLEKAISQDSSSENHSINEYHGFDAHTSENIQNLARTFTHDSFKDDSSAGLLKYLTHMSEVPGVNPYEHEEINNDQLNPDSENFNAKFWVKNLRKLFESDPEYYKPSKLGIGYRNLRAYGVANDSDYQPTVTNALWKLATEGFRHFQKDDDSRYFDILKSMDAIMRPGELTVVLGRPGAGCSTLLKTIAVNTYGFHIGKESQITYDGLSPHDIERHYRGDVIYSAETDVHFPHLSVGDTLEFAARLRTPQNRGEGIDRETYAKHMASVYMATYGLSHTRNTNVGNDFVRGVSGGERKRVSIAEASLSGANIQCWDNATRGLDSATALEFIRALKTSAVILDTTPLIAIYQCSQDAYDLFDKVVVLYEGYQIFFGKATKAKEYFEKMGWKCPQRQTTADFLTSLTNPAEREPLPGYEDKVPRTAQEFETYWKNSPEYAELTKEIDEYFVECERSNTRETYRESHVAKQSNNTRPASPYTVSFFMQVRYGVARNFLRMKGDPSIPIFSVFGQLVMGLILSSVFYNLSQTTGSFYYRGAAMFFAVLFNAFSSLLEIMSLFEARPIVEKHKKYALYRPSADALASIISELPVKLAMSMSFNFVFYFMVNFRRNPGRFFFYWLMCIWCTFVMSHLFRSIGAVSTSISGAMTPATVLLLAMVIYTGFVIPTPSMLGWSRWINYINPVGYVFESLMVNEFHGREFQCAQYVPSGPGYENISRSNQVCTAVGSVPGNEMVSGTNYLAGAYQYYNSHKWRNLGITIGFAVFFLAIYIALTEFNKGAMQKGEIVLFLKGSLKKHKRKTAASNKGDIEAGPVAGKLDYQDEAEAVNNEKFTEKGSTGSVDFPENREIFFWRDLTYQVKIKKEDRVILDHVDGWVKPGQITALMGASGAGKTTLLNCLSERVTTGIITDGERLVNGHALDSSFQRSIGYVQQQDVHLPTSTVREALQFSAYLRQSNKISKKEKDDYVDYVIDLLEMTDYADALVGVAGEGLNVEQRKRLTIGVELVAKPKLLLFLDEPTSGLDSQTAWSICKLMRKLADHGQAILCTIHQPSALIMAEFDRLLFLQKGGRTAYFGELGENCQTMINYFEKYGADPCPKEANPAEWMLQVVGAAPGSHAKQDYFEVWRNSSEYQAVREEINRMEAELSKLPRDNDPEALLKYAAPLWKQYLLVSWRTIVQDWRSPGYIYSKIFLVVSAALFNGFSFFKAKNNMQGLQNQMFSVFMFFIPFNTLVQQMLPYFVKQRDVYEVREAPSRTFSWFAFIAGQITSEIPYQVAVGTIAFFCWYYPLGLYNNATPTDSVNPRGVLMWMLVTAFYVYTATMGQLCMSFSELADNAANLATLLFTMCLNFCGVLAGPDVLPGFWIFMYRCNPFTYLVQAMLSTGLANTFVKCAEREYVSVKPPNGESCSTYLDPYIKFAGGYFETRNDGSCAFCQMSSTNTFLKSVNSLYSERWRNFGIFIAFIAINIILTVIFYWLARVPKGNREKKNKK
The test system of the next test is Streptococcus. The test is described as follows: GAS UMAA2166 growth inhibition – luminescence, BacTiterGlo, counter-screen for streptokinase expression inhibitor project, dose response (AID 1915).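 Further: potency for reduction of bacterial viability or growth.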 In kind it is functional, organism-based. A general note: A counterscreen serves to expose hits that act by an unwanted route or on another target.
Test [5] can be described thus: microbe, parasite or virus in culture. Particulars: Mycobacterium tuberculosis. In kind it is functional.
The next test deals with T1, Streptokinase A (Streptococcus pyogenes serotype M1, UniProt P10520).
T1 sequence (P10520 whole entry): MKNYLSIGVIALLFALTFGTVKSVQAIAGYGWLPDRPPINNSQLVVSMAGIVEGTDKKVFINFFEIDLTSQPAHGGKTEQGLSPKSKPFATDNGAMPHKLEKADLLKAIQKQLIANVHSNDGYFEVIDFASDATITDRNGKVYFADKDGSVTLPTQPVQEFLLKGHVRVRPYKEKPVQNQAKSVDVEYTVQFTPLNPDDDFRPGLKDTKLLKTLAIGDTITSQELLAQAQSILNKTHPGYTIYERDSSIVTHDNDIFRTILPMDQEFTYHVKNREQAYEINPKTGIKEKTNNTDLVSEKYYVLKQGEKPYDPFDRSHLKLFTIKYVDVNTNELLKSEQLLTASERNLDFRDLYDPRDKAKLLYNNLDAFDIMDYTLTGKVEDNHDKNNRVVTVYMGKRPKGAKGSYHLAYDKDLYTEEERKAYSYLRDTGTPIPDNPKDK
The test is described as follows: viability-normalized secreted streptokinase activity reduction – plasminogen activation absorbance, OD405, dose response (AID 1914).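 Further: secreted streptokinase activity via plasminogen activation per viability signal from cell pellet.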 In kind it is functional, Streptococcus pyogenes M1 GAS.

Test [6] has as its target T2, High affinity choline transporter 1 (Homo sapiens, UniProt Q9GZV3).
T2 sequence (Q9GZV3 whole entry): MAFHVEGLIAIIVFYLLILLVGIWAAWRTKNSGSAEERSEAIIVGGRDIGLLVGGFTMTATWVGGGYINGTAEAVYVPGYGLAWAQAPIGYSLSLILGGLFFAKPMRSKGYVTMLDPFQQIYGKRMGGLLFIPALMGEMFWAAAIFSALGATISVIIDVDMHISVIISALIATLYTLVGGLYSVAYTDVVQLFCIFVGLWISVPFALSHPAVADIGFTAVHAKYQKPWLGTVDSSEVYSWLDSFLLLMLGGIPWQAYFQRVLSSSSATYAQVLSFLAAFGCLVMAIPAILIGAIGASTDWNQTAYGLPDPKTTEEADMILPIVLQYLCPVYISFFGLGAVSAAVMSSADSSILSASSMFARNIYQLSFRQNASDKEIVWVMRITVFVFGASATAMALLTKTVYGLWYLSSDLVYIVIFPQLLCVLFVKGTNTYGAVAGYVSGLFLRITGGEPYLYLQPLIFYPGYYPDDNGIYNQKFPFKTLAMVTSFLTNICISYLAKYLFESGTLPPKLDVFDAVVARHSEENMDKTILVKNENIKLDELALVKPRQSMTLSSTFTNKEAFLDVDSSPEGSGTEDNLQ
Put plainly: human choline transporter blockers, potency – cell-based, 10-point CRC, membrane potential dye, dose response (AID 588401).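 Further: membrane potential dye fluorescence of choline-evoked depolarization via CHT.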 The format is functional.

Test [7] concerns the target T2, High affinity choline transporter 1. The test is described as follows: human choline transporter blockers, potency – cell-based, 5-point CRC, membrane potential dye, dose response (AID 504840). The format is functional.
Test [8] deals with Mitogen-activated protein kinase 9 (Homo sapiens, UniProt P45984). In kind it is functional.
Test [9] addresses Tyrosine-protein kinase JAK2 (Homo sapiens, UniProt O60674). The format is functional.
Test [10] addresses Mitogen-activated protein kinase 14 (Homo sapiens, UniProt Q16539). The format is functional.
For test [11], the target named is Mitogen-activated protein kinase kinase kinase kinase 5 (Homo sapiens, UniProt Q9Y4K4). The format is functional.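 Further: measured as one member of a kinome-spanning kinase panel.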
Test [12] has as its target Receptor-type tyrosine-protein kinase FLT3 (Homo sapiens, UniProt P36888). The format is functional.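 Further: FLT3 was tested as one member of a kinome-wide kinase panel.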
Test [13] deals with Death-associated protein kinase 3 (Homo sapiens, UniProt O43293). In kind it is functional.
The target in test [14] is Serine/threonine-protein kinase PAK 4 (Homo sapiens, UniProt O96013). The format is functional.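 Further: value obtained within a kinome profiling panel in which PAK4 was one of the panel members.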
For test [15], the target named is Macrophage-stimulating protein receptor (Homo sapiens, UniProt Q04912). The test is described as follows: Navigating the Kinome. Panel member name: MST1R. In kind it is functional.
Test [16] has as its target Dual specificity protein kinase CLK4 (Homo sapiens, UniProt Q9HAZ1). In kind it is functional.
Test [17] concerns the target Tyrosine-protein kinase Lck (Homo sapiens, UniProt P06239). In kind it is functional.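 Further: lck was assayed as one member of a kinase panel.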
Test [18] has as its target Inhibitor of nuclear factor kappa-B kinase subunit epsilon (Homo sapiens, UniProt Q14164). The test is described as follows: Navigating the Kinome. Panel member name: IKBKE. The format is functional.
Test [19] addresses MAP/microtubule affinity-regulating kinase 3 (Homo sapiens, UniProt P27448). In kind it is functional.
In test [20] the target is Insulin-like growth factor 1 receptor (Homo sapiens, UniProt P08069). The test is described as follows: Navigating the Kinome. Panel member name: IGF1R. In kind it is functional.
Test [21] has as its target Leukocyte tyrosine kinase receptor (Homo sapiens, UniProt P29376). Put plainly: Navigating the Kinome. Panel member name: LTK. The format is functional.
For test [22], the target named is Platelet-derived growth factor receptor alpha (Homo sapiens, UniProt P16234). Put plainly: Navigating the Kinome. Panel member name: PDGFRA. The format is functional.
For test [23], the target named is Tyrosine-protein kinase JAK3 (Homo sapiens, UniProt P52333). The format is functional.
Sequence of Tyrosine-protein kinase JAK3 (P52333 whole entry): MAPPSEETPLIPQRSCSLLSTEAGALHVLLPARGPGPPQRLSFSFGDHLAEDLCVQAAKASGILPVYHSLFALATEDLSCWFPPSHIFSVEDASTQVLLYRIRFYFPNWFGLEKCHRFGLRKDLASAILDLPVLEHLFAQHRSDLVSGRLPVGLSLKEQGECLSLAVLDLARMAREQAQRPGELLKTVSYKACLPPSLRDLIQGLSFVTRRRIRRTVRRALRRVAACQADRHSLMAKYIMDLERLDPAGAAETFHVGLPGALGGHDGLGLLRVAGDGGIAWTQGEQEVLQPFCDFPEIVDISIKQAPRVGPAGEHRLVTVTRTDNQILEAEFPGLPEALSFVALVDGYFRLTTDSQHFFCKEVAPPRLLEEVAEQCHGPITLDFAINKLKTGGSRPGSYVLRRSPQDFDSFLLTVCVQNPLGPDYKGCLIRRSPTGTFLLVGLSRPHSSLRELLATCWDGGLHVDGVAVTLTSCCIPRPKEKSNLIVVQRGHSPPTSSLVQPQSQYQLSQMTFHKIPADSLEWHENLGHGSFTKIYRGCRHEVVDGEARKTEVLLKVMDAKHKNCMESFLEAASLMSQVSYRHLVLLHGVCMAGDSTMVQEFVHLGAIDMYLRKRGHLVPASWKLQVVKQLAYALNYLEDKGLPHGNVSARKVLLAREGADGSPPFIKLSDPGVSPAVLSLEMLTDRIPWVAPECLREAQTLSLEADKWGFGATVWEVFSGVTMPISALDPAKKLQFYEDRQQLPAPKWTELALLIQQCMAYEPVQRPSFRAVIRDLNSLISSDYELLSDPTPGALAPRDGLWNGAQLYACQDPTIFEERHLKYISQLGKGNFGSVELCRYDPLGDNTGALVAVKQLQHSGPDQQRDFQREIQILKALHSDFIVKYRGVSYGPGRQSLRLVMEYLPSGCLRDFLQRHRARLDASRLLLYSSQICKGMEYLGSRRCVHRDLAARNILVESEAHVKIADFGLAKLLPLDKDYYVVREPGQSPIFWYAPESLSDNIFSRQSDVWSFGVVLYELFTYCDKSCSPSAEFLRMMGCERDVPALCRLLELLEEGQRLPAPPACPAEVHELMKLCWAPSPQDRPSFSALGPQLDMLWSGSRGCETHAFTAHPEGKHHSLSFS
For test [24], the target named is Dual specificity protein kinase CLK2 (Homo sapiens, UniProt P49760). In kind it is functional.
Test [25] addresses 5'-AMP-activated protein kinase catalytic subunit alpha-1 (Homo sapiens, UniProt Q13131). The format is functional.
The target in test [26] is Macrophage colony-stimulating factor 1 receptor (Homo sapiens, UniProt P07333). In kind it is functional.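 Further: value comes from the Navigating the Kinome screening panel, CSF1R member.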
Test [27] addresses Tyrosine-protein kinase BTK (Homo sapiens, UniProt Q06187). The format is functional.
Test [28] has as its target Cyclin-dependent kinase 9 (Homo sapiens, UniProt P50750). In kind it is functional.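 Further: value from the CDK9 entry of a kinome-spanning kinase panel.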
Test [29] addresses Vascular endothelial growth factor receptor 1 (Homo sapiens, UniProt P17948). In kind it is functional.
In test [30] the target is Cyclin-dependent kinase 8 (Homo sapiens, UniProt P49336). The test is described as follows: Navigating the Kinome. Panel member name: CDK8. In kind it is functional.
For test [31], the target named is Serine/threonine-protein kinase pim-1 (Homo sapiens, UniProt P11309). The format is functional.
The next test addresses Aurora kinase A (Homo sapiens, UniProt O14965). In kind it is functional.
Test [32] has as its target Mitogen-activated protein kinase kinase kinase kinase 4 (Homo sapiens, UniProt O95819). The format is functional.
The target of test [33] is Fibroblast growth factor receptor 1 (Homo sapiens, UniProt P11362). The format is functional.
For test [34], the target named is Serine/threonine-protein kinase TBK1 (Homo sapiens, UniProt Q9UHD2). The test is described as follows: Navigating the Kinome. Panel member name: TBK1. In kind it is functional.
Sequence of Serine/threonine-protein kinase TBK1 (Q9UHD2 whole entry): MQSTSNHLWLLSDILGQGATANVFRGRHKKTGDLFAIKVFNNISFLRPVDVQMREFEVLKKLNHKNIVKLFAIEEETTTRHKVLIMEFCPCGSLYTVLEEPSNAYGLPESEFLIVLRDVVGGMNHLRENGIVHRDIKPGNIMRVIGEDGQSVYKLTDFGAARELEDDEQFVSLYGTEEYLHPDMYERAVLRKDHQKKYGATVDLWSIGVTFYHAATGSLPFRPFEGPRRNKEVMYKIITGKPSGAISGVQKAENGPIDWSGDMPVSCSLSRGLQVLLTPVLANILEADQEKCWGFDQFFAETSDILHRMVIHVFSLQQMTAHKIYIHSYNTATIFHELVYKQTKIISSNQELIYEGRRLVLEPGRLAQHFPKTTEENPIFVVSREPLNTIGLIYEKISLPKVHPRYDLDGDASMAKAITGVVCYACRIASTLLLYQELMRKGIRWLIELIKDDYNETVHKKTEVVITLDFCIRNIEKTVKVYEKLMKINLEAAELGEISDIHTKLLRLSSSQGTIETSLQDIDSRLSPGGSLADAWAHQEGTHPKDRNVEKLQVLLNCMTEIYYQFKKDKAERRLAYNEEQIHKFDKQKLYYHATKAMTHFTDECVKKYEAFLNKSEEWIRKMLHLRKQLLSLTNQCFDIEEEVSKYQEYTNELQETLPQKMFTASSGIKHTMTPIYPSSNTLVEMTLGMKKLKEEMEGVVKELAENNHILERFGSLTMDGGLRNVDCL
Test [35] addresses Tyrosine-protein kinase ABL1 (Homo sapiens, UniProt P00519). In kind it is functional.
Test [36] deals with Vascular endothelial growth factor receptor 2 (Homo sapiens, UniProt P35968). In kind it is functional.
The target in test [37] is ALK tyrosine kinase receptor (Homo sapiens, UniProt Q9UM73). In kind it is functional.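 Further: ALK tested as one member of a kinase panel screen.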
For test [38], the target named is Dual specificity mitogen-activated protein kinase kinase 1 (Homo sapiens, UniProt Q02750). Put plainly: Navigating the Kinome. Panel member name: MAP2K1. The format is functional.
Test [39] addresses Leucine-rich repeat serine/threonine-protein kinase 2 (Homo sapiens, UniProt Q5S007). In kind it is functional.
Test [40] concerns the target G protein-coupled receptor kinase 5 (Homo sapiens, UniProt P34947). Put plainly: Navigating the Kinome. Panel member name: GPRK5. The format is functional.
In test [41] the target is Serine/threonine-protein kinase N2 (Homo sapiens, UniProt Q16513). In kind it is functional.
Test [42] addresses Tyrosine-protein kinase receptor TYRO3 (Homo sapiens, UniProt Q06418). The format is functional.
For test [43], the target named is Dual specificity tyrosine-phosphorylation-regulated kinase 1A (Homo sapiens, UniProt Q13627). In kind it is functional.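 Further: measured against DYRK1A as one member of a broad kinome profiling panel.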
Test [44] concerns the target Calcium/calmodulin-dependent protein kinase type II subunit alpha (Homo sapiens, UniProt Q9UQM7). Put plainly: Navigating the Kinome. Panel member name: CAMK2A. The format is functional.
Test [45] addresses Glycogen synthase kinase-3 beta (Homo sapiens, UniProt P49841). In kind it is functional.
Test [46] deals with Mitogen-activated protein kinase 8 (Homo sapiens, UniProt P45983). The format is functional.
The target of test [47] is Mitogen-activated protein kinase kinase kinase kinase 2 (Homo sapiens, UniProt Q12851). The format is functional.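 Further: measured as one member of a kinome-wide kinase panel, with MAP4K2 as the panel entry.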
The target of test [48] is cAMP-dependent protein kinase catalytic subunit PRKX (Homo sapiens, UniProt P51817). In kind it is functional.
Test [49] deals with Tyrosine-protein kinase Fyn (Homo sapiens, UniProt P06241). The format is functional.
Test [50] has as its target Dual specificity mitogen-activated protein kinase kinase 2 (Homo sapiens, UniProt P36507). Put plainly: Navigating the Kinome. Panel member name: MAP2K2. The format is functional.
The target in test [51] is cAMP-dependent protein kinase catalytic subunit alpha (Homo sapiens, UniProt P17612). The format is functional.
Test [52] has as its target Serine/threonine-protein kinase TAO1 (Homo sapiens, UniProt Q7L7X3). The format is functional.
In test [53] the target is High affinity nerve growth factor receptor (Homo sapiens, UniProt P04629). In kind it is functional.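 Further: NTRK1 tested as one member of a kinome-wide profiling panel.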
Test [54] addresses Glycogen synthase kinase-3 alpha (Homo sapiens, UniProt P49840). The format is functional.

Sequence of Glycogen synthase kinase-3 beta (P49841 whole entry): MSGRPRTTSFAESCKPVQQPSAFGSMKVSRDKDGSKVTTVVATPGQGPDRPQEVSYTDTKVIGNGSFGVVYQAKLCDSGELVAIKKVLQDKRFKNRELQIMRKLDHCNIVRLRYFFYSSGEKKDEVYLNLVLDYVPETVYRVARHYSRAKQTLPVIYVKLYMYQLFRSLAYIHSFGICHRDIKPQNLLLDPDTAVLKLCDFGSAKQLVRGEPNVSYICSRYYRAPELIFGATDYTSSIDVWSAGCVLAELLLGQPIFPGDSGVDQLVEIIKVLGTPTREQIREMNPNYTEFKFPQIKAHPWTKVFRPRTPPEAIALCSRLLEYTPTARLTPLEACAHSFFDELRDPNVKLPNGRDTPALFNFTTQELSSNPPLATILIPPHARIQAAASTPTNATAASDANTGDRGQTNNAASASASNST
Sequence of Leukocyte tyrosine kinase receptor (P29376 whole entry): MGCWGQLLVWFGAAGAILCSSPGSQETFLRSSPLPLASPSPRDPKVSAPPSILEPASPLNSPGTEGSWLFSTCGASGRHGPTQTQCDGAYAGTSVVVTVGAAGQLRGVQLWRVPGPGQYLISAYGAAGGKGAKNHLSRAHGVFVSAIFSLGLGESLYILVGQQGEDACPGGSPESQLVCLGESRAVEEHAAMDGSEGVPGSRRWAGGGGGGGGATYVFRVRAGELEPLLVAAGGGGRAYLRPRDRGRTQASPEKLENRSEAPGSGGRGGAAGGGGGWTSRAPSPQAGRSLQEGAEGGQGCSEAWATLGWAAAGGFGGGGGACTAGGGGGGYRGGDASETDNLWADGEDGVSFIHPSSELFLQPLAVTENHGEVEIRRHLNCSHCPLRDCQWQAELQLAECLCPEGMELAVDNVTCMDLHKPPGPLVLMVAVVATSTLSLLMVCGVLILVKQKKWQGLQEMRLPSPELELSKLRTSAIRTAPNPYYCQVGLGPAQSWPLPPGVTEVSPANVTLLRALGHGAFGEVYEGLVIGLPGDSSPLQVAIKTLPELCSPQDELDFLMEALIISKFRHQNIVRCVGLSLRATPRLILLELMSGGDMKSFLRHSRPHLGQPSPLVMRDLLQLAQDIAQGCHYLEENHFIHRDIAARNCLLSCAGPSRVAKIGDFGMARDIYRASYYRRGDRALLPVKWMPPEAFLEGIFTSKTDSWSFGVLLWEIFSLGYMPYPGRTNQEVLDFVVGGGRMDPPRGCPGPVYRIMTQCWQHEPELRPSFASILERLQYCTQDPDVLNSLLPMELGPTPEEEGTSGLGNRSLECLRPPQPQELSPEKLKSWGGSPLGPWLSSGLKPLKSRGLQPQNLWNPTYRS
Sequence of Cyclin-dependent kinase 9 (P50750 whole entry): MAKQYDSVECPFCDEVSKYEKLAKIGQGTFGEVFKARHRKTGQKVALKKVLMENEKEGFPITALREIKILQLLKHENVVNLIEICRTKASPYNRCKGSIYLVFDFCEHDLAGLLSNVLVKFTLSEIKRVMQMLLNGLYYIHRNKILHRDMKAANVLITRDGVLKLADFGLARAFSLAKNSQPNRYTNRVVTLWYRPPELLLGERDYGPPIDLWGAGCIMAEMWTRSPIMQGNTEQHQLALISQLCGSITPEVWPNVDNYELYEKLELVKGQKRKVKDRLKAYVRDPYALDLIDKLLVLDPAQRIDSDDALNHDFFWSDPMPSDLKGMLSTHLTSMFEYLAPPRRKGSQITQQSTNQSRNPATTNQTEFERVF

For `CCc1ccc(NC2=NC(=O)/C(=C/c3cc(OC)c(O)c(OC)c3)S2)cc1`, the EC50 in test [1] was 2.67 µM (active); in test [2], 19.2 µM (active); in test [3], 10.5 µM (active); in test [4], 6.05 µM (active); in the test with Streptococcus, 28.2 µM (active); on Streptokinase A, > 150 µM (not active). Moreover, in test [5], the CC50 is > 40 µM (active).
As for `Cc1nn2c(N3CCN(CCO)CC3)c3c(nc2c1-c1ccccc1)CCCC3`, the IC50 in test [6] is 4.74 µM (active); in test [7] it was 6.95 µM (active).
Regarding `Cc1cc(O)nc2[nH]nc(-c3cccc(-c4ccc(C#N)cc4)c3)c12`, the Ki in [8] was > 3.98 µM (inactive); in test [9], > 2.51 µM (inactive); in [10], > 3.98 µM (inactive); in [11], > 3.98 µM (inactive); in test [12] it was > 3.16 µM (inactive); in test [13], > 5.01 µM (inactive). In addition, the Ki is > 5.01 µM (inactive) in [14]; > 3.98 µM (inactive) in [15]; > 2.51 µM (inactive) in test [16]; > 6.31 µM (inactive) in test [17]; > 3.16 µM (inactive) in [18]; 0.001 µM (active) in test [19]. Also, the Ki in test [20] is > 2.51 µM (inactive); in test [21], > 2.51 µM (inactive); in test [22], > 2.51 µM (inactive); in test [23] it was > 5.01 µM (inactive); in test [24] it was > 3.98 µM (inactive); in [25] it was > 3.16 µM (inactive). The Ki in test [26] was > 2.51 µM (inactive); in test [27], > 6.31 µM (inactive); in test [28], > 1.58 µM (inactive); in test [29], > 3.98 µM (inactive); in [30], > 3.98 µM (inactive); in [31] it was > 6.31 µM (inactive). Moreover, the Ki at Aurora kinase A was > 1.58 µM (inactive); in [32] it was > 5.01 µM (inactive); in [33], > 3.98 µM (inactive); in [34], > 3.16 µM (inactive); in test [35], > 3.98 µM (inactive); in test [36], > 2.51 µM (inactive). Besides, the Ki in [37] is > 6.31 µM (inactive); in test [38], > 3.16 µM (inactive); in [39], > 2.51 µM (inactive); in [40], > 3.98 µM (inactive); in test [41], > 5.01 µM (inactive); in [42], > 3.16 µM (inactive). For the same molecule, the Ki in test [43] is > 2 µM (inactive); in test [44], > 7.94 µM (inactive); in [45], > 3.98 µM (inactive); in [46], > 5.01 µM (inactive); in test [47] it was > 2.51 µM (inactive); in test [48], > 3.16 µM (inactive). The Ki in test [49] is > 6.31 µM (inactive); in [50], > 3.98 µM (inactive); in test [51], > 1.26 µM (inactive); in test [52] it was > 6.31 µM (inactive); in test [53], > 3.16 µM (inactive); in [54], 3.98 µM (active).
